Laboratory results reported in US20240382589A1, “Synergistic Inhibition of eIF5A and Notch Signaling in Intermediate Tregs” (The University of Toledo, priority 2022, published 2024).

Tests used:
[1] = system: anti-GAD65, anti-IA2 and anti-insulin autoantibodies; test: Anti-GAD65, anti-IA2 and anti-insulin autoantibody ELISA in mouse serum; assay type: in vivo; details: TID mice; treatment with GC7 or anti-DLL4
Experimental: Anti-GAD65, anti-IA2, and anti-insulin autoantibodies were measured in mice serum using
an Anti-GAD65 ELISA kit (Kronus, Star, ID) according to the manufacturer's instructions. Mice anti-insulin antibodies were measured using a mouse insulin autoantibody (IAA) ELISA kit (Abbexa, catalog #abx053161. Abbexa LLC, Houston, TX, United States; with a positive predictive value range between 0.16 and 10 ng/ml). Anti-IA2 autoantibodies were also measured using a human IA2 autoantibody (IA2Ab) ELISA kit (Kronus, Star, ID) following the manufacturers' manual.

[2] = target: T1, deoxyhypusine synthase (DHS) (Homo sapiens, UniProt P49366); details: cited from earlier work
T1 sequence (P49366 1-369): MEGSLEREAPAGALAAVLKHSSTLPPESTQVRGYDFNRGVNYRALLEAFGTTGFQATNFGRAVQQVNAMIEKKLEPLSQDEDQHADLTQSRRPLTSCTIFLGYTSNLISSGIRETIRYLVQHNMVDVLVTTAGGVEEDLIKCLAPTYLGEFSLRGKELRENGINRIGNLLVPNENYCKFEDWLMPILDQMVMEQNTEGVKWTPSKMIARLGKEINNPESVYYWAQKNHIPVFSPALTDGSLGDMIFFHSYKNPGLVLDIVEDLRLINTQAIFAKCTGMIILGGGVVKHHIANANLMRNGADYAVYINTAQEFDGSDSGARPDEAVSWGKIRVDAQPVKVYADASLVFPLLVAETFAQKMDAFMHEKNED

[3] = system: CD4, CD8 and CD25 T cells isolated from PLN of TID mice; test: In vitro co-stimulation / CFSE proliferation of T cells from PLN of TID mice; assay type: cell-based, mouse
Experimental: Purified CD4, CD8, and CD25 cells were isolated from TID mice using the mice CD4 T Cell Isolation Kit (#130-104-454), CD8a+ T Cell Isolation Kit II (#130-095-236), and CD4+ CD25+ Regulatory T Cell Isolation Kit (Cat no: 130-091-041) following standard protocol. Briefly, after sacrificing the TID mice, pancreatic lymph nodes (PLN) were isolated and single cell suspensions were prepared. Non-CD4 T cells and non-CD8 T cells were isolated using magnetically labeled microbeads. Non-CD4 T cells were retained in the MACS column and non-touch enriched CD4 and CD8 cells were eluted from the column. Simultaneously CD25 positive cells were separated from the CD4 clute with anti-CD25PE microbeads with more than 90% purity. Single cell suspensions of CD4, CD8, and CD25^− T cells were stained with carboxyfluorescein succinimidyl ester (CFSE) to track the induced proliferation. Single cell suspensions of purified CD4, CD8, and CD25 T cells (CFSE-labeled) were co-stimulated with recombinant human GAD65 (rhGAD65) protein ([…]), GC7 (100 mM), anti-DLL4 ([…]), rhGAD65+GC7, rhGAD65+GC7+anti-DLL4, or CD3+CD28 stimulated for 4 days (n=7). CD4 T cells (CFSE-labeled) were further stained with fluorochrome-conjugated antibodies against mouse IL-17(clone 559502, PE), IFNg (clone 554413, APC), and forkhead box P3 (Foxp3) (clone MF23, Alexa Fluor@488, Alexa Fluor@647). In vitro proliferation assays were analyzed by FLOWJO V10 Beta software using fix ratio, fix CV, and fix background from unstimulated cells.

[4] = system: TID mice and NOD mice; details: cited from earlier work

SMILES	GAD65 antibody titer [1]	IC50 [2] [mM]	Treg population (expression of CD25 and FOXP3 on CD3+ CD4 T cells) ([3]; GC7 (100 mM), 4 days)	replicative index of Treg cells (Treg peak) ([3]; GC7 (100 mM), CFSE)	proliferation index of CD8 T cells ([3]; compared to conventional stimulation with anti-(CD3+CD28)/rhGAD65)	adverse effect in previous in vivo studies [4]
N=C(N)NCCCCCCCN [GC7, N1-guanyl-1,7-diaminoheptane]	significantly reduced	1.7e-05	significantly enriched	significant Treg peak	not significant	did not reveal any significant adverse effect
C/C(=N\NC(=N)N)c1cc(NC(=O)CCCCCCCCC(=O)Nc2cc(/C(C)=N/NC(=N)N)cc(/C(C)=N/NC(=N)N)c2)cc(/C(C)=N/NC(=N)N)c1 [Semapimod]	–	~2	–	–	–	–
